Entries after “also recorded” stand apart in the source; their conditions may differ.
Columns and labels:
TLR8 = experiment: Primary human macrophages stimulated with CL075: cytokine mRNA, Western blot, IRAK precipitations; format: cell-based; conditions: TLR8-stimulated cells, 15 μM, CL075 3 μg/ml
Method: Primary human macrophages (PBMC derived, differentiated in media with 10% human serum and M-CSF 20 ng/ml, 7 days) were stimulated with K12 LPS (100 ng/ml), FSL-1 (100 ng/ml) or CL075 (3 μg/ml). […] (B) qPCR for mRNA expression of IFNβ, IL-6, TNF and IL-1β, average for three biological replicates, error bars ±SD.
Primary human macrophages (7 days) were pre-treated with Pen or P7-Pen (15 μM) for 30 min before addition of LPS (100 ng/ml), FSL-1 (100 ng/ml) or CL075 (3 μg/ml). A: Protein expression in lysates for input control. B,C: Precipitations were performed using sheep anti-IRAK4 (B) or anti-IRAK1 (C) polyclonal antibodies covalently bound to magnetic beads.

human IL-1 receptor = experiment: HEK-Blue IL-1R cells stimulated with human recombinant IL-1β; format: cell-based
From the text: TLR2 and 4, and the endosomal TLRs 7-9, use the Myddosome signaling complex to activate transcription of pro-inflammatory cytokines, and endosomal TLRs also activate expression of type I IFNs via the same signaling complex. There are also several IL-1-like receptors including the IL-1 receptor (IL-1R) itself, which is characterized by extracellular immunoglobulin-like domains and intracellular Toll/Interleukin-1R (TIR) domains. These receptors also use the Myddosome complex to initiate downstream signaling. Therefore, we decided to test if signaling downstream of human IL-1R could be altered by the P7-Pen peptide. We used HEK-Blu IL-1R cells (Invivogen) that endogenously express the human IL-1 receptor. HEK-Blue IL-1R cells express a SEAP reporter gene under the control of the IFNβ minimal promoter fused to five NF-κB and five AP-1 binding sites. Binding of IL-1β to its receptor IL-1R on the surface of HEK-Blue IL-1R cells triggers a signaling cascade leading to the activation NF-κB and the subsequent production of SEAP.
In the assay, HEK-Blue IL-1R cells were pre-treated with control peptide or P7-Pen and stimulated with human recombinant II-1β (hII-1β) for up to 3 hr or for 24 hr. Stimulation of cells by TLR2 and 4 as well as by IL-1β would result in fast posttranslational modifications of IRAK1 in the Myddosome, and in phosphorylation of p38 MAPK. […]

THP-1 TRAM KO cells = experiment: qPCR of LPS-mediated cytokine expression in THP-1 TRAM KO cells; format: cell-based, human; conditions: 10 μM, LPS 100 ng/ml 2 or 4 h
Method: Control THP-1 CRISPR cells and TRAM KO cells were pre-treated with 10 μM peptides—control peptides with amino acid substitutions (C3-Pen) or TRAM-targeting peptide Pep7-Penetratin (P7-Pen)—for 30 min before stimulation with LPS (100 ng/ml) for 2 or 4 h. Cells were lysed with Qiazol, followed by RNA isolation and quantitative PCR analysis of cytokine mRNA expression.
In human cells (THP-1 cell line) TRAM expression was not required for TLR4-mediated IL-1β or TNF expression in response to LPS or E. coli particles (FIG. 21, lower panels). P7-Pen was as effective in reducing expression of pro-inflammatory cytokines in THP-1 TRAM KO cells as in control cells (FIG. 22).

Jurkat cells = experiment: Proliferation of Jurkat T cell leukaemia cells; format: cell-based, human; conditions: 15 μM or 20 μM, 48 h
Method: Jurkat cells were seeded at 5000 cells/well (as indicated by dotted line) and incubated in medium supplemented with water, penetratin, P7-Pen or P7-N4-Pen. Peptides were included at 15 μM (A) or 20 μM (B). Cells were incubated for 48 hours then counted. […] Results are based on 3 biological replicates, error bars show standard deviation of mean.
SW480 (ATCC CCL-228) and Jurkat (ATCC Clone E6-1; TIB-152) cells were cultured in RPMI 1640 (Sigma-Aldrich, Schnelldorf, Germany) supplemented with 10% heat-inactivated FCS, penicillin/streptomycin (Life Technologies) and 20 mM L-Glutamine. THP-1 cells (ATCC TIB-202) were cultured in RPMI-1640 (high-glucose, ATCC) supplemented with 10% heat inactivated foetal calf serum (FCS), 100 nM penicillin/streptomycin and 5 μM β-mercaptoethanol (Sigma). THP-1 cells were differentiated with 60 ng/ml phorbol 12-myristate 13-acetate (PMA, Sigma) for 72 h, followed by 24 or 48 h in medium without PMA.
The peptides were tested against the SW480 cell line in the presence and absence of LPS.

For “Ac-ITVYASVTLTGRQIKIWFQNRRMKWKK-NH2 [Peptide P7-Pen]”, the “IRAK1 and IRAK4 recruitment to MyD88 at an early time point” value (TLR8) was “inhibitory effect”, the “late recruitment of IRAKs or phosphorylation of p38 MAPKs” value (TLR8) was “no effect” and the “IL-1β-induced IRAK1 posttranslational modifications or p-p38 MAPK levels” value (human IL-1 receptor; data not shown) was “no effect”. For the same substance, the “IL-1β-mediated secretion of SEAP” value (human IL-1 receptor; versus cells pre-treated with control peptide Pen (data not shown)) was “comparable”, the “reducing expression of pro-inflammatory cytokines in THP-1 TRAM KO cells versus control cells” value (THP-1 TRAM KO cells) was “as effective” and the “effect on proliferation of Jurkat cells” value (Jurkat cells) was “possible anti-proliferative effect; also recorded: clear anti-proliferative effect”.
